Values of other authors, collected in patent US6475716B1, “Method for preserving mammalian organs” (Biobank Co., Ltd., priority 2001, dated 2002).

Tested on: cell membranes of the heart
Conditions: heart exposed to low temperature of 4° C. or ischemic injury

For `OC[C@H]1O[C@H](O[C@H]2O[C@H](CO)[C@@H](O)[C@H](O)[C@H]2O)[C@H](O)[C@@H](O)[C@@H]1O` [trehalose], the “protection of cell membranes of the heart” value is given as “had the ability to protect cell membranes of the heart”.
